This note sets out measurements from patent US20240174665A1, “CDK2 INHIBITORS AND USES THEREOF” (Kymera Therapeutics, Inc., priority 2022, published 2024).

The target in the assay is T1, CDK2/CycE1 (Homo sapiens, UniProt P24941).
T1 construct: 1.5 nM CDK2/CycE1, amino acids 1-298/1-410, Carna BS; purchased Carna BS (Carna Biosciences) 04-165, lot 20CBS-0731B
In words: CDK2 inhibition assay, PhosphoSens CSox-based Kinetic Assay Format (AssayQuant). The format is biochemical. As to conditions: 1.5 nM CDK2/CycE1, 1.5× Km ATP, 30 minute preincubation at 30° C., reaction 240 minutes; read-out: IC50 CDK2-CycE1 (AssayQuant) Using PhosphoSens ® CSox-based Kinetic Assay Format. Here is the method: Inhibition of CDK2 was measured using PhosphoSens® CSox-based Kinetic Assay Format (AssayQuant Technologies) as follows:
• 2.5 μl 10× Inhibitor in 10% DMSO (3-fold titration in 10% DMSO for a final DMSO concentration of 1%) • […] Reaction Mix with ATP, DTT, & CSx Substrate • 30 minute preincubation at 30° C. • […] Enzyme dilution buffer (EDB) (1×) or Kinase (5× in EDB); Enzyme Dilution Buffer (EDB): 20 mM HEPES, pH 7.5, 0.01% Brij-35, 0.1 mM EGTA, 5% Glycerol, 1.0 mg/ml BSA, 1.0 mM DTT • 25 μL Final reaction volume • Reaction was run at 30° C. for 240 minutes
• 54 mM HEPES, pH 7.5 • 1.5× Km ATP (see ATP TAB) • 1.2 mM DTT • 0.012% Brij-35 • 0.52 mM EGTA • 1% glycerol • 0.2 mg/ml BSA • 10 mM MgCl2 • 15 μM AQT0297
Reactions were run in Corning, low volume 384-well, white flat round bottom polystyrene NBS microplates (Cat. #3824) after sealing using optically-clear adhesive film (TopSealA-Plus plate seal, PerkinElmer [Cat. #6050185])
The letter codes for CDK2 inhibition include: A (<100 nM), B (≥100-500 nM), C (>500-1000 nM), and D (>1000 nM).

Bounds are passed on as bounds.

As usually defined, the IC50 is the point on the concentration scale where inhibition reaches its midpoint. For `CC(C)c1cccc2cnc(NC3CCN(S(C)(=O)=O)CC3)nc12` [I-215], the IC50 is less than 100 nM. For `CCS(=O)(=O)c1ccc(Nc2ncc3cc(Cl)c(=O)n(C(C)C)c3n2)c(C)c1` [I-30], the IC50 lay within 100 to 500 nM.

On to `CCS(=O)(=O)c1ccc(Nc2ncc(C(F)(F)F)c(-c3cn(C(C)C)c(C)n3)n2)c(C)c1` [I-44], for which the IC50 is less than 100 nM. Regarding `CCS(=O)(=O)c1ccc(Nc2ncc3c(n2)N(C2CCCC2)C(=O)C32CC2)c(C)c1` [I-35], the concentration for half-maximal inhibition (IC50) is less than 100 nM. As for `CCS(=O)(=O)c1ccc(Nc2ncc3cc(F)c(=O)n(C4CCCC4)c3n2)c(C)c1` [I-52], the concentration for half-maximal inhibition (IC50) lay in the range of 100 to 500 nM. With `CNS(=O)(=O)c1ccc(Nc2ncc3cc(Cl)c(=O)n(C(C)C)c3n2)c(C)n1` [I-218], the IC50 was 100 to 500 nM. On to `Cc1cc(CS(C)(=O)=O)ccc1Nc1ncc2cc(Cl)c(=O)n(C(C)C)c2n1` [I-197], for which the half-inhibitory concentration (IC50) was greater than 1000 nM. As for `CCS(=O)(=O)c1ccc(Nc2ncc3cc(C(F)(F)F)c(=O)n(C4CCCC4)c3n2)c(C)c1` [I-53], the IC50 lay within 500 to 1000 nM. On to `COC1CC2(CCC(Nc3ncc4cc(Cl)c(=O)n(C5CCCC5)c4n3)CC2)C1` (stereo not drawn) [I-239], for which the half-inhibitory concentration (IC50) was greater than 1000 nM.

As to `CNS(=O)(=O)c1ccc(Nc2ncc3cc(Cl)c(=O)n(C(C)C)c3n2)c(C)c1` [I-247], the half-inhibitory concentration (IC50) is less than 100 nM. The same measure for `CC(=O)N(c1ccc(-c2cnn(C)c2)cc1)[C@H]1CC[C@H](Nc2ncc3cc(Cl)c(=O)n(C(C)C)c3n2)CC1` [I-228]: 100 to 500 nM; for `COCc1cc(-c2ccc(Nc3ncc4cc(Cl)c(=O)n(C(C)C)c4n3)c(C)c2)n(C)n1` [I-210]: greater than 1000 nM; for `CNS(=O)(=O)c1ccc(Nc2nccc(-c3cnc(C)n3C(C)C)n2)c(C)c1` [I-269]: less than 100 nM.

As for `Cc1cc(S(=O)(=O)C2CCC3(CC2)CN(C)C3)ccc1Nc1ncc2cc(Cl)c(=O)n(C3CCCC3)c2n1` [I-41], the IC50 was less than 100 nM. The figure for `CCS(=O)(=O)c1ccc(Nc2ncc(C(F)(F)F)c([C@H]3CC[C@](C)(O)CC3)n2)c(C)c1` [I-43] is greater than 1000 nM; for `Cc1cc(CS(C)(=N)=O)ccc1Nc1ncc2cc(Cl)c(=O)n(C(C)C)c2n1` (stereo not drawn) [I-207] it is 100 to 500 nM. On to `CCS(=N)(=O)c1ccc(Nc2ncc3cc(Cl)c(=O)n(C(C)C)c3n2)c(C)c1` (stereo not drawn) [I-208], for which the IC50 was in the range of 100 to 500 nM. Turning to `CCS(=O)(=O)c1ccc(Nc2nccc(-c3cnc(C)n3C(C)C)n2)c(C)c1` [I-29, N-(4-ethylsulfonyl-2-methyl-phenyl)-4-(3-isopropyl-2-methyl-imidazol-4-yl) pyrimidin-2-amine], the IC50 was in the range of 100 to 500 nM. Consider `Cn1cc(S(=O)(=O)N2CCC(Nc3ncc4c(n3)N(C3CCCC3)C(=O)C43CC3)CC2)cn1` [I-255], for which the concentration for half-maximal inhibition (IC50) is less than 100 nM. On to `CNS(=O)(=O)c1ccc(Nc2ncc(C(F)(F)F)c([C@H]3CC[C@@](C)(O)CC3)n2)c(C)c1` [I-67], for which the half-maximal inhibitory concentration (IC50) was less than 100 nM.

Take `CCS(=O)(=O)c1ccc(Nc2ncc(C(F)(F)F)c(-c3cnn(C)c3C(F)F)n2)c(C)c1` [I-45]: the IC50 was in the range of 500 to 1000 nM.

For `Cn1cc(S(=O)(=O)N2CCC(Nc3ncc4c(n3)N([C@@H]3CCC[C@@]3(C)O)C(=O)C43CC3)CC2)cn1` [I-254], the IC50 was less than 100 nM. For the compound `CNS(=O)(=O)c1ccc(Nc2ncc(C(F)(F)F)c(C3CCOCC3)n2)c(C)c1` [I-271], the IC50 lay within 500 to 1000 nM.

Turning to `CNS(=O)(=O)c1ccc(Nc2nc(OC3CCCCC3)c3ncsc3n2)c(C)c1` [I-234], the IC50 is greater than 1000 nM. Regarding `CC(C)(O)c1cccc2cnc(NC3CCN(S(C)(=O)=O)CC3)cc12` [I-212], the IC50 lay in the range of 100 to 500 nM.

Turning to `CNS(=O)(=O)c1ccc(Nc2ncc3ccc(=O)n(C4CCCC4)c3n2)c(C)c1` [I-252], the 50% inhibitory concentration (IC50) was less than 100 nM. In the case of `CNS(=O)(=O)c1ccc(Nc2ncc(C(F)(F)F)c(-c3cnn(C)c3C(F)F)n2)c(C)c1` [I-267], the IC50 lay within 100 to 500 nM. As to `CNS(=O)(=O)c1ccc(Nc2ncc3cc(C(F)F)c(=O)n(C4CCCC4)c3n2)c(C)c1` [I-242], the IC50 is less than 100 nM. As to `CNS(=O)(=O)c1ccc(Nc2ncc3cc(C(F)F)c(=O)n([C@@H]4CCC[C@@]4(C)O)c3n2)c(C)c1` [I-256], the IC50 is less than 100 nM. The figure for `CNS(=O)(=O)c1ccc(Nc2ncc(C(F)(F)F)c(C3CCCCC3)n2)c(C)c1` [I-68] is greater than 1000 nM. The same measure for `Cc1cc(S(N)(=O)=O)ccc1Nc1ncc(C(F)(F)F)c(-c2cnn(C)c2)n1` [I-272]: less than 100 nM. Regarding `CC(=O)N1CCC(Nc2ncc3cc(Cl)c(=O)n(C(C)C)c3n2)CC1` [I-235], the IC50 lay within 500 to 1000 nM. Turning to `CNS(=O)(=O)c1cc(C)c(Nc2ncc3cc(Cl)c(=O)n(C(C)C)c3n2)cn1` [I-213], the half-maximal inhibitory concentration (IC50) was 100 to 500 nM. Take `CCS(=O)(=O)c1ccc(Nc2ncc3cc(C(F)F)nc(N4CCCC4)c3n2)c(C)c1` [I-42]: the 50% inhibitory concentration (IC50) was less than 100 nM. As for `CNS(=O)(=O)c1ccc(Nc2ncc(C(F)(F)F)c(-c3cn(C(C)C)c(C)n3)n2)c(C)c1` [I-266], the IC50 was less than 100 nM. As to `CCS(=O)(=O)c1ccc(Nc2ncc(C(F)(F)F)c([C@H]3CC[C@@](C)(O)CC3)n2)c(C)c1` [I-40], the half-maximal inhibitory concentration (IC50) was greater than 1000 nM. For `CCS(=O)(=O)c1ccc(Nc2ncc3cc(C(F)F)c(=O)n(C(C)C)c3n2)c(C)c1` [I-31], the IC50 was greater than 1000 nM. In the case of `CNS(=O)(=O)c1ccc(Nc2ncc(C(F)(F)F)c(-c3cnc(C)n3C(C)C)n2)c(C)c1` [I-265], the IC50 fell in the range of 100 to 500 nM. The figure for `CCS(=O)(=O)c1ccc(Nc2ncc(C(F)(F)F)c(-c3cnn(C)c3)n2)c(C)c1` [I-27, N-(4-ethylsulfonyl-2-methyl-phenyl)-4-(1-methylpyrazol-4-yl)-5-(trifluoromethyl) pyrimidin-2-amine] is less than 100 nM.
